According to publication PMC5218480 (PLoS ONE, 2017):

Tested on: MV-4-11 cells
Assay: Gene expression microarray analysis (Affymetrix PrimeView) and GSEA
Type: cell-based, human
Set-up: RFU PODN (11730768_x_at) / Fold change /veh PODN (11730768_x_at) / RFU LINC00158 (11744669_a_at) / Fold change /veh LINC00158 (11744669_a_at) / RFU DUSP10 (11751237_a_at) / Fold change /veh DUSP10 (11751237_a_at) / RFU ID3 (11757404_x_at) / Fold change /veh ID3 (11757404_x_at) / RFU PLEKHG5 (11737974_s_at) / Fold change /veh PLEKHG5 (11737974_s_at) / RFU LRRC4B (11730491_at) / Fold change /veh LRRC4B (11730491_at) / RFU GIMAP4 (11747438_a_at) / Fold change /veh GIMAP4 (11747438_a_at) / RFU KRT8 (11758183_x_at) / Fold change /veh KRT8 (11758183_x_at) / RFU CNN1 (11734310_a_at) / Fold change /veh CNN1 (11734310_a_at) / RFU VPS37D (11726825_at) / Fold change /veh VPS37D (11726825_at) / RFU C10orf10 (11716522_x_at) / Fold change /veh C10orf10 (11716522_x_at) / RFU KIR2DL2 /// KIR2DL4 /// KIR2DL5A /// KIR2DL5B /// KIR2DS1 /// KIR2DS2 /// KIR2DS3 /// KIR2DS4 /// KIR3DL3 /// KIR3DL3 /// KIR3DS1 (11738374_at) / Fold change /veh KIR2DL2 /// KIR2DL4 /// KIR2DL5A /// KIR2DL5B /// KIR2DS1 /// KIR2DS2 /// KIR2DS3 /// KIR2DS4 /// KIR3DL3 /// KIR3DL3 /// KIR3DS1 (11738374_at) / RFU C1QL1 (11718748_at) / Fold change /veh C1QL1 (11718748_at) / RFU TMPRSS4 (11747572_a_at) / Fold change /veh TMPRSS4 (11747572_a_at) / RFU HAMP (11756126_x_at) / Fold change /veh HAMP (11756126_x_at) / RFU RNFT2 (11725882_a_at) / Fold change /veh RNFT2 (11725882_a_at) / RFU NR4A2 (11747474_a_at) / Fold change /veh NR4A2 (11747474_a_at) / RFU ABCC12 (11746883_a_at) / Fold change /veh ABCC12 (11746883_a_at) / RFU TMEM136 (11760407_x_at) / Fold change /veh TMEM136 (11760407_x_at) / RFU CLDN22 /// WWC2 (11732394_at) / Fold change /veh CLDN22 /// WWC2 (11732394_at) / RFU HLA-DPB1 (11760878_x_at) / Fold change /veh HLA-DPB1 (11760878_x_at) / RFU SPINT1 (11716480_a_at) / Fold change /veh SPINT1 (11716480_a_at) / RFU GAP43 (11754022_s_at) / Fold change /veh GAP43 (11754022_s_at) / RFU A4GNT (11735810_at) / Fold change /veh A4GNT (11735810_at) / RFU PRB3 (11715151_x_at) / Fold change /veh PRB3 (11715151_x_at) / RFU TUBB4B (11761932_at) / Fold change /veh TUBB4B (11761932_at) / RFU CAPN14 (11732068_a_at) / Fold change /veh CAPN14 (11732068_a_at) / RFU TMCC2 (11721928_a_at) / Fold change /veh TMCC2 (11721928_a_at) / RFU IRGQ (11745062_a_at) / Fold change /veh IRGQ (11745062_a_at) / RFU FAM174B (11720279_a_at) / Fold change /veh FAM174B (11720279_a_at) / RFU TMPRSS4 (11748680_a_at) / Fold change /veh TMPRSS4 (11748680_a_at) / RFU FAM212B (11763350_a_at) / Fold change /veh FAM212B (11763350_a_at) / RFU PLEKHG5 (11743358_a_at) / Fold change /veh PLEKHG5 (11743358_a_at) / RFU ZSCAN30 (11745921_a_at) / Fold change /veh ZSCAN30 (11745921_a_at) / RFU CMKLR1 (11741424_a_at) / Fold change /veh CMKLR1 (11741424_a_at) / RFU LOC101060620 /// MAPK8IP1 (11723275_at) / Fold change /veh LOC101060620 /// MAPK8IP1 (11723275_at) / RFU SPTSSB (11747773_x_at) / Fold change /veh SPTSSB (11747773_x_at) / RFU PRSS12 (11739890_at) / Fold change /veh PRSS12 (11739890_at) / RFU BIN1 (11741810_x_at) / Fold change /veh BIN1 (11741810_x_at) / RFU WNT11 (11732464_a_at) / Fold change /veh WNT11 (11732464_a_at) / RFU C10orf10 (11716521_a_at) / Fold change /veh C10orf10 (11716521_a_at) / RFU C5orf56 (11738089_at) / Fold change /veh C5orf56 (11738089_at) / RFU CYB561 (11721691_x_at) / Fold change /veh CYB561 (11721691_x_at) / RFU ANKRD19P (11752326_a_at) / Fold change /veh ANKRD19P (11752326_a_at) / RFU OR2T12 /// OR2T33 /// OR2T8 (11738714_s_at) / Fold change /veh OR2T12 /// OR2T33 /// OR2T8 (11738714_s_at) / RFU VCAN (11748164_a_at) / Fold change /veh VCAN (11748164_a_at) / RFU JSRP1 (11732532_at) / Fold change /veh JSRP1 (11732532_at) / RFU KRTAP10-11 (11738290_x_at) / Fold change /veh KRTAP10-11 (11738290_x_at) / RFU MYO3A (11730013_a_at) / Fold change /veh MYO3A (11730013_a_at) / RFU EBF3 (11725865_a_at) / Fold change /veh EBF3 (11725865_a_at) / RFU CAMK2N1 (11719241_x_at) / Fold change /veh CAMK2N1 (11719241_x_at) / RFU C5orf56 (11738088_a_at) / Fold change /veh C5orf56 (11738088_a_at) / RFU OLFML3 (11715873_a_at) / Fold change /veh OLFML3 (11715873_a_at) / RFU LOC100653217 /// NTM (11731650_a_at) / Fold change /veh LOC100653217 /// NTM (11731650_a_at) / RFU MAPK11 (11762145_a_at) / Fold change /veh MAPK11 (11762145_a_at) / RFU FIZ1 (11724087_x_at) / Fold change /veh FIZ1 (11724087_x_at) / RFU OASL (11726364_x_at) / Fold change /veh OASL (11726364_x_at) / RFU SOX15 (11748057_x_at) / Fold change /veh SOX15 (11748057_x_at) / RFU CD79A (11719716_a_at) / Fold change /veh CD79A (11719716_a_at) / RFU HIST1H1D (11736915_at) / Fold change /veh HIST1H1D (11736915_at) / RFU CASKIN2 (11723855_a_at) / Fold change /veh CASKIN2 (11723855_a_at) / RFU LOC730098 (11760151_x_at) / Fold change /veh LOC730098 (11760151_x_at) / RFU OR4N2 (11742367_at) / Fold change /veh OR4N2 (11742367_at) / RFU PRRT2 (11749266_a_at) / Fold change /veh PRRT2 (11749266_a_at) / RFU SNX32 (11753110_a_at) / Fold change /veh SNX32 (11753110_a_at) / RFU CDHR5 (11726645_a_at) / Fold change /veh CDHR5 (11726645_a_at) / RFU RCAN1 (11760418_a_at) / Fold change /veh RCAN1 (11760418_a_at) / RFU FAM167A (11723789_a_at) / Fold change /veh FAM167A (11723789_a_at) / RFU FAM26E (11764081_at) / Fold change /veh FAM26E (11764081_at) / RFU ISYNA1 (11749810_s_at) / Fold change /veh ISYNA1 (11749810_s_at) / RFU ACY1 (11761880_at) / Fold change /veh ACY1 (11761880_at) / RFU 11764098_at / Fold change /veh 11764098_at / RFU SAMD14 (11745864_x_at) / Fold change /veh SAMD14 (11745864_x_at) / RFU NPB (11741838_a_at) / Fold change /veh NPB (11741838_a_at) / RFU TMPRSS6 (11731388_a_at) / Fold change /veh TMPRSS6 (11731388_a_at) / RFU KRTAP10-2 (11738614_at) / Fold change /veh KRTAP10-2 (11738614_at) / RFU ARHGAP8 /// PRR5-ARHGAP8 (11727945_x_at) / Fold change /veh ARHGAP8 /// PRR5-ARHGAP8 (11727945_x_at) / RFU KRTAP5-7 /// NADSYN1 (11734609_at) / Fold change /veh KRTAP5-7 /// NADSYN1 (11734609_at) / RFU RASL12 (11751679_a_at) / Fold change /veh RASL12 (11751679_a_at) / RFU CDKN2B (11736163_a_at) / Fold change /veh CDKN2B (11736163_a_at) / RFU PRF1 (11729649_at) / Fold change /veh PRF1 (11729649_at) / RFU, ZNF638 /// ZNF638-IT1 / Fold change vs veh, ZNF638 /// ZNF638-IT1 / RFU, PANK3 / Fold change vs veh, PANK3 / RFU, SH3YL1 / Fold change vs veh, SH3YL1 / RFU, ZEB2 / Fold change vs veh, ZEB2 / RFU, NRIP1 / Fold change vs veh, NRIP1 / RFU, PTTG1IP / Fold change vs veh, PTTG1IP / RFU, CAPN2 / Fold change vs veh, CAPN2 / RFU, MED14 / Fold change vs veh, MED14 / RFU, SNORA58 / Fold change vs veh, SNORA58 / RFU, C1orf63 / Fold change vs veh, C1orf63 / RFU, LRRFIP1 / Fold change vs veh, LRRFIP1 / RFU, NDUFAF7 / Fold change vs veh, NDUFAF7 / RFU, SLC12A2 / Fold change vs veh, SLC12A2 / RFU, IBTK / Fold change vs veh, IBTK / RFU, ESF1 / Fold change vs veh, ESF1 / Fold change vs veh, TMEM50B / RFU, TAOK1 / Fold change vs veh, TAOK1 / RFU, ACBD3 / Fold change vs veh, ACBD3 / RFU, TMA16 / Fold change vs veh, TMA16 / RFU, RWDD3 / Fold change vs veh, RWDD3 / RFU, BCAT1 / Fold change vs veh, BCAT1 / RFU, EDEM3 / Fold change vs veh, EDEM3 / RFU, TMEM33 / Fold change vs veh, TMEM33 / RFU, WDR75 / Fold change vs veh, WDR75 / RFU, AHCTF1 / Fold change vs veh, AHCTF1 / RFU, TFRC / Fold change vs veh, TFRC / RFU, ZDHHC17 / Fold change vs veh, ZDHHC17 / RFU, NOM1 / Fold change vs veh, NOM1 / RFU, ARL8B / Fold change vs veh, ARL8B / RFU, ZBTB11 / Fold change vs veh, ZBTB11 / RFU, TAMM41 / Fold change vs veh, TAMM41 / RFU, KIAA1704 /// LOC100996395 / Fold change vs veh, KIAA1704 /// LOC100996395 / RFU, ING1 / Fold change vs veh, ING1 / RFU, TRMT61B / Fold change vs veh, TRMT61B / RFU, FUBP3 / Fold change vs veh, FUBP3 / RFU, TP53 / Fold change vs veh, TP53 / RFU, TNKS2 / Fold change vs veh, TNKS2 / RFU, ZFP14 / Fold change vs veh, ZFP14 / RFU, ACTR2 / Fold change vs veh, ACTR2 / RFU, PPP3R1 / Fold change vs veh, PPP3R1 / RFU, PIK3R1 / Fold change vs veh, PIK3R1 / RFU, HNRNPA1 / Fold change vs veh, HNRNPA1 / RFU, RNF170 / Fold change vs veh, RNF170 / RFU, ZNF28 / Fold change vs veh, ZNF28 / RFU, RNGTT / Fold change vs veh, RNGTT / RFU, OGT / Fold change vs veh, OGT / RFU, BRD1 / Fold change vs veh, BRD1 / RFU, MARS / Fold change vs veh, MARS / RFU, ZNF655 / Fold change vs veh, ZNF655 / RFU, FAHD1 / Fold change vs veh, FAHD1 / RFU, BDP1 / Fold change vs veh, BDP1 / RFU, LRRCC1 / Fold change vs veh, LRRCC1 / RFU, ARID1A / Fold change vs veh, ARID1A / RFU, ZNF146 / Fold change vs veh, ZNF146 / RFU, ZNF330 / Fold change vs veh, ZNF330 / RFU, GPN3 / Fold change vs veh, GPN3 / RFU, C9orf123 / Fold change vs veh, C9orf123 / RFU, N4BP2L2 / Fold change vs veh, N4BP2L2 / RFU, ARFIP1 / Fold change vs veh, ARFIP1 / RFU, FAM179B / Fold change vs veh, FAM179B / RFU, BCL10 / Fold change vs veh, BCL10 / RFU, UHRF1BP1L / Fold change vs veh, UHRF1BP1L / RFU, BET1 / Fold change vs veh, BET1 / RFU, CNOT2 / Fold change vs veh, CNOT2 / RFU, ZNF268 / Fold change vs veh, ZNF268 / Fold change vs veh, ZNF507 / RFU, DGCR2 / Fold change vs veh, DGCR2 / RFU, WDSUB1 / Fold change vs veh, WDSUB1 / Fold change vs veh, HSP90B1 /// MIR3652 / RFU, ADSS / Fold change vs veh, ADSS / RFU, GK / Fold change vs veh, GK / RFU, ZNF148 / Fold change vs veh, ZNF148 / RFU, TAF9 / Fold change vs veh, TAF9 / RFU, SLC1A5 / Fold change vs veh, SLC1A5 / RFU, SLMO2 / Fold change vs veh, SLMO2 / RFU, ABCC4 / Fold change vs veh, ABCC4 / RFU, LOC101060439 /// RAP1B / Fold change vs veh, LOC101060439 /// RAP1B / RFU, RFX7 / Fold change vs veh, RFX7 / RFU, GTPBP10 / Fold change vs veh, GTPBP10 / RFU, CNEP1R1 / Fold change vs veh, CNEP1R1 / RFU, BIVM-ERCC5 /// ERCC5 / Fold change vs veh, BIVM-ERCC5 /// ERCC5 / RFU, ILF3 / Fold change vs veh, ILF3 / RFU 11762660_at / Fold change /veh 11762660_at / RFU VCAN (11757783_s_at) / Fold change /veh VCAN (11757783_s_at) / RFU DDX43 (11728927_at) / Fold change /veh DDX43 (11728927_at) / RFU KRT8 (11758188_x_at) / Fold change /veh KRT8 (11758188_x_at) / RFU NKD1 (11759106_at) / Fold change /veh NKD1 (11759106_at) / RFU SRD5A1 (11742802_a_at) / Fold change /veh SRD5A1 (11742802_a_at) / RFU TPSAB1 /// TPSB2 (11721975_s_at) / Fold change /veh TPSAB1 /// TPSB2 (11721975_s_at) / RFU GSTM3 (11746129_a_at) / Fold change /veh GSTM3 (11746129_a_at) / RFU IL23R (11737362_x_at) / Fold change /veh IL23R (11737362_x_at) / RFU TMEM51 (11727254_a_at) / Fold change /veh TMEM51 (11727254_a_at) / RFU PIWIL2 (11732686_x_at) / Fold change /veh PIWIL2 (11732686_x_at) / RFU ORM1 (11744905_x_at) / Fold change /veh ORM1 (11744905_x_at) / RFU CCDC152 (11743942_at) / Fold change /veh CCDC152 (11743942_at) / RFU ECM1 (11717891_a_at) / Fold change /veh ECM1 (11717891_a_at) / RFU IL23R (11748794_a_at) / Fold change /veh IL23R (11748794_a_at) / RFU TNFAIP8L3 (11732012_x_at) / Fold change /veh TNFAIP8L3 (11732012_x_at) / RFU MBOAT4 (11741988_at) / Fold change /veh MBOAT4 (11741988_at) / RFU 11764193_at / Fold change /veh 11764193_at / RFU TMEM53 (11763286_at) / Fold change /veh TMEM53 (11763286_at) / RFU MAGEB2 (11727129_at) / Fold change /veh MAGEB2 (11727129_at) / RFU TMEM200A (11744735_a_at) / Fold change /veh TMEM200A (11744735_a_at) / RFU CCDC152 (11751479_a_at) / Fold change /veh CCDC152 (11751479_a_at) / RFU FAM211A (11726209_a_at) / Fold change /veh FAM211A (11726209_a_at) / RFU RGS16 (11746705_a_at) / Fold change /veh RGS16 (11746705_a_at) / RFU VCAN (11755009_s_at) / Fold change /veh VCAN (11755009_s_at) / RFU RHOB (11743442_s_at) / Fold change /veh RHOB (11743442_s_at) / RFU RGS16 (11720943_a_at) / Fold change /veh RGS16 (11720943_a_at) / RFU RGS16 (11720944_at) / Fold change /veh RGS16 (11720944_at) / RFU, VPS4B / Fold change vs veh, VPS4B / RFU, CREB1 / Fold change vs veh, CREB1 / RFU, DNAJC13 / Fold change vs veh, DNAJC13 / RFU, GNAQ / Fold change vs veh, GNAQ / RFU, CDK5R1 / Fold change vs veh, CDK5R1 / RFU, ZRANB3 / Fold change vs veh, ZRANB3 / RFU, CUL4A / Fold change vs veh, CUL4A / RFU, CCNY / Fold change vs veh, CCNY / RFU, UFL1 / Fold change vs veh, UFL1 / RFU, COG3 / Fold change vs veh, COG3 / RFU, DIAPH2 / Fold change vs veh, DIAPH2 / RFU, SKA2 / Fold change vs veh, SKA2 / RFU, AFF3 / Fold change vs veh, AFF3 / RFU, LMF1 / Fold change vs veh, LMF1 / RFU, IPO11 / Fold change vs veh, IPO11 / RFU, DFFB / Fold change vs veh, DFFB / RFU, FOXP1 / Fold change vs veh, FOXP1 / RFU, CARD8 / Fold change vs veh, CARD8 / RFU, STRN3 / Fold change vs veh, STRN3 / RFU, ADK / Fold change vs veh, ADK / RFU, RASSF2 / Fold change vs veh, RASSF2 / RFU, WIPF1 / Fold change vs veh, WIPF1 / RFU, LARP1B / Fold change vs veh, LARP1B / RFU, RASA1 / Fold change vs veh, RASA1 / RFU, RB1 / Fold change vs veh, RB1 / RFU, PPFIA1 / Fold change vs veh, PPFIA1 / RFU, MAT2A / Fold change vs veh, MAT2A / RFU, CCT5 / Fold change vs veh, CCT5 / RFU, WDR92 / Fold change vs veh, WDR92 / RFU, CUX1 / Fold change vs veh, CUX1 / RFU, TTC7A / Fold change vs veh, TTC7A / RFU, TMEM135 / Fold change vs veh, TMEM135 / RFU, DEPTOR / Fold change vs veh, DEPTOR / RFU, CPM / Fold change vs veh, CPM / RFU, DNAJB6 / Fold change vs veh, DNAJB6 / RFU, CACNA2D3 / Fold change vs veh, CACNA2D3 / RFU, DTX4 / Fold change vs veh, DTX4 / RFU, TFCP2 / Fold change vs veh, TFCP2 / RFU, GMCL1 /// GMCL1P1 / Fold change vs veh, GMCL1 /// GMCL1P1 / RFU, AEBP2 / Fold change vs veh, AEBP2 / RFU, SNHG1 /// SNORD22 /// SNORD25 /// SNORD26 /// SNORD27 /// SNORD28 /// SNORD29 /// SNORD31 / Fold change vs veh, SNHG1 /// SNORD22 /// SNORD25 /// SNORD26 /// SNORD27 /// SNORD28 /// SNORD29 /// SNORD31 / Fold change (Aza/veh), C12orf56 (ProbeSet 11735607_a_at) / Fold change (ACY-1035/veh), C12orf56 (ProbeSet 11735607_a_at) / Fold change (Aza/veh), FGFR1OP (ProbeSet 11751329_s_at) / Fold change (ACY-1035/veh), FGFR1OP (ProbeSet 11751329_s_at) / Fold change (Aza/veh), VPS36 (ProbeSet 11739960_a_at) / Fold change (ACY-1035/veh), VPS36 (ProbeSet 11739960_a_at) / RFU SYPL1 (11715823_x_at) / Fold change /veh SYPL1 (11715823_x_at) / RFU IGFBP7 (11715501_s_at) / Fold change /veh IGFBP7 (11715501_s_at) / RFU REEP3 (11722064_at) / Fold change /veh REEP3 (11722064_at) / RFU IGLL1 (11728026_x_at) / Fold change /veh IGLL1 (11728026_x_at): dose or concentration left out as unconfirmed
Conditions: MV-4-11 cells, 48 hours

## Nc1ncn([C@@H]2O[C@H](CO)[C@@H](O)[C@H]2O)c(=O)n1 [azacitidine]
  RFU HAMP (11756126_x_at): 317.78 RFU
